{"source": "paper PMC7406636", "about": "“In vivo and in silico characterization of apocynin in reducing organ oxidative stress: A pharmacokinetic and pharmacodynamic study” (Pharmacology Research & Perspectives, 2020)", "test": "Time-dependent distribution of apocynin in plasma, urine and tissues after iv bolus injection (HPLC-MS/MS)", "type": "in vivo, mouse", "details": "plasma, brain and liver samples after iv bolus injection of apocynin, HPLC-MS/MS", "experimental": "All studies were performed in accordance with the protocols approved by the Home Office under the Animals (Scientific Procedures) Act 1986, UK. For the PKPD study, male CD1 mice (Charles River Ltd) at 12 weeks of age with a body weight range between 25 and 30 g were used for the study. Mice were fasted 12 hours before bolus iv injection of apocynin at 5 mg/kg body weight (dosing volume 5 mL/kg) via a lateral tail vein. Control mice were injected with vehicle (solvent of apocynin) at each time points. Four mice/per time points were sacrificed at 0, 1, 2.5, 5, 15, 30, 60 minutes and then at 3, 6, 12, and 24 hours after iv injection of apocynin. Blood samples were collected and centrifuged at 2000 g, 4°C for 10 minutes for plasma collection. Urine samples were collected from bladders. Tissues were harvested for further experiments.\nThe detection of apocynin in tissue sample was performed as described previously with some modifications. ^17 In brief, apocynin was detected using an Accela HPLC coupled to a linear ion‐trap tandem mass spectrometry (LTQ‐Orbitrap XL; Thermo‐Fisher Scientific) (HPLC‐MS/MS) in the negative ion mode. Phenacetin (500 ng/mL) was used as an internal standard in every vial. A reversed‐phase 50 × 2.1 mm ID, […], 175 Å pore C18 Hypersil Gold column (Thermo Scientific) was used with injection volume set at 5 µL for the separation of apocynin and phenacetin. Calibration curve used for PK analysis was constructed by spiking apocynin in mouse plasma using eight calibrators ranging from 1 to 10000 ng/mL with great reproducibility and R ^2 ≥ 0.996 for subsequent 5 separate experiments on different days. […] Limit of detection for apocynin was set up at signal to noise ratio ≥ 3, ^18 which is 1 ng/mL in our system. The limitation of quantification was set up at signal to noise ratio ≥ 10, which is 10 ng/mL in our system. Orbitrap component was used for the full scan spectra of apocynin and diapocynin."}
{"compound": "COc1cc(C(C)=O)cc(-c2cc(C(C)=O)cc(OC)c2O)c1O", "note": "[Diapocynin]", "values": [{"measurement": "diapocynin detection as metabolite in samples", "value": "not detected"}]}
